Assay results from the supplement of paper PMC11061612.

Columns and labels:
Assay in all cases: combination Emax (second highest fraction inhibited in the dose matrix, 72 h); higher = more inhibition; extreme values may be limits of the assay
A673 (Ewing's Sarcoma) = test system: A673 (Ewing's Sarcoma)
How it was run: (§1)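 Cell lines in DMEM/F12 or RPMI with 10% FBS were plated in 1536-well plates, held 24 hours at 37°C, 5% CO2, then given two-drug dose matrices for 72 hours (DMSO typically 0.2%). Viability was read by CellTiter-Glo 2.0 luminescence and scaled as inhibition from 0 (vehicle wells) to 1 (blank wells). Combination Emax is the second-highest inhibition in the matrix; Bliss excess is observed combination effect minus expected EA + EB − EA·EB, EA and EB being single-agent effects.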

[1] = test system: ALL-PO (B-Lymphoblastic Leukemia)
How it was run: as §1

BPH-1 (Non-Cancerous) = test system: BPH-1 (Non-Cancerous)
How it was run: as §1

[2] = test system: CAL-33 (Oral Cavity Carcinoma)
How it was run: as §1

EW-11 (Ewing's Sarcoma) = test system: EW-11 (Ewing's Sarcoma)
How it was run: as §1

[3] = test system: FTC-133 (Thyroid Gland Carcinoma)
How it was run: as §1

[4] = test system: HH (T-Cell Non-Hodgkin's Lymphoma)
How it was run: as §1

[5] = test system: HeLa (Cervical Carcinoma)
How it was run: as §1

[6] = test system: Hs-746T (Gastric Carcinoma)
How it was run: as §1

[7] = test system: LCLC-97TM1 (Non-Small Cell Lung Carcinoma)
How it was run: as §1

[8] = test system: NCI-H1568 (Lung Adenocarcinoma)
How it was run: as §1

[9] = test system: NCI-H209 (Small Cell Lung Carcinoma)
How it was run: as §1

[10] = test system: NCI-H524 (Small Cell Lung Carcinoma)
How it was run: as §1

[11] = test system: NUGC-4 (Gastric Carcinoma)
How it was run: as §1

[12] = test system: SAS (Oral Cavity Carcinoma)
How it was run: as §1

[13] = test system: SNU-449 (Hepatocellular Carcinoma)
How it was run: as §1

[14] = test system: SW1573 (Lung Adenocarcinoma)
How it was run: as §1

[15] = test system: TGBC1TKB (Biliary Tract Carcinoma)
How it was run: as §1

[16] = test system: WSU-NHL (B-Cell Non-Hodgkin's Lymphoma)
How it was run: as §1

[17] = test system: YAPC (Pancreatic Carcinoma)
How it was run: as §1

SMILES	combination Emax (A673 (Ewing's Sarcoma))	combination Emax [1]	combination Emax (BPH-1 (Non-Cancerous))	combination Emax [2]	combination Emax (EW-11 (Ewing's Sarcoma))	combination Emax [3]	combination Emax [4]	combination Emax [5]	combination Emax [6]	combination Emax [7]	combination Emax [8]	combination Emax [9]	combination Emax [10]	combination Emax [11]	combination Emax [12]	combination Emax [13]	combination Emax [14]	combination Emax [15]	combination Emax [16]	combination Emax [17]
COc1nnc2ccc(N3CCC(c4ccc(OCCN5CCN(C)C(=O)[C@H]5C)cc4)CC3)nn12 [AZD5153] + CCN(CCO)CCCOc1ccc2c(Nc3cc(CC(=O)Nc4cccc(F)c4)[nH]n3)ncnc2c1 [AZD2811] (first compound max 1 µM, 7x7, partner max 1 µM)	0.616	1	0.844	0.609	0.452	0.678	0.485	0.433	0.572	0.764	0.283	0.458	0.97	0.557	0.819	0.298	0.504	0.307	0.934	0.342
COc1nnc2ccc(N3CCC(c4ccc(OCCN5CCN(C)C(=O)[C@H]5C)cc4)CC3)nn12 [AZD5153] + C[C@@H]1COCCN1C2=NC(=NC(=C2)C3(CC3)[S@](=N)(=O)C)C4=C5C=CNC5=NC=C4 [AZD6738] (first compound max 1 µM, 7x7, partner max 10 µM)	0.84	0.987	0.831	0.839	0.692	0.782	0.491	0.589	0.63	0.87	0.476	0.908	0.915	0.652	0.921	0.166	0.557	0.508	0.99	0.529
COc1nnc2ccc(N3CCC(c4ccc(OCCN5CCN(C)C(=O)[C@H]5C)cc4)CC3)nn12 [AZD5153] + Cc1c2c(nn1C)CSCc1cc(n(C)n1)CSc1cc(c3ccccc3c1)OCCCc1c(C(=O)O)n(C)c3c-2c(Cl)ccc13 [AZD5991] (first compound max 1 µM, 7x7, partner max 1 µM)	0.699	1	0.86	0.628	0.945	0.615	1	0.799	0.495	0.733	0.393	0.981	0.934	0.652	0.823	0.292	0.422	0.289	1	0.365
COc1nnc2ccc(N3CCC(c4ccc(OCCN5CCN(C)C(=O)[C@H]5C)cc4)CC3)nn12 [AZD5153] + Cn1cnc2c(F)c(Nc3ccc(Br)cc3Cl)c(C(=O)NOCCO)cc21 [Selumetinib] (first compound max 1 µM, 7x7, partner max 10 µM)	0.604	0.88	0.87	0.708	0.424	0.592	0.42	0.411	0.731	0.848	0.413	0.508	0.575	0.831	0.86	0.243	0.577	0.37	0.954	0.477
Cc1c2c(nn1C)CSCc1cc(n(C)n1)CSc1cc(c3ccccc3c1)OCCCc1c(C(=O)O)n(C)c3c-2c(Cl)ccc13 [AZD5991] + C1CN(CCC1(C(=O)N[C@@H](CCO)C2=CC=C(C=C2)Cl)N)C3=NC=NC4=C3C=CN4 [Capivasertib] (first compound max 1 µM, 7x7, partner max 3 µM)	0.421	1	0.469	0.347	0.897	0.663	0.928	0.671	0.337	0.32	0.191	0.36	0.452	0.215	0.189	0.182	0.231	0.292	0.9	0.149
Cc1c2c(nn1C)CSCc1cc(n(C)n1)CSc1cc(c3ccccc3c1)OCCCc1c(C(=O)O)n(C)c3c-2c(Cl)ccc13 [AZD5991] + C=CCn1c(=O)c2cnc(Nc3ccc(N4CCN(C)CC4)cc3)nc2n1-c1cccc(C(C)(C)O)n1 [AZD1775] (first compound max 1 µM, partner max 1 µM)	0.614	1	0.525	0.802	0.863	0.956	0.77	0.841	0.605	0.948	0.434	0.95	0.816	0.47	0.625	0.302	0.44	0.303	0.954	0.416
